Results reported in PubChem BioAssay (NCI).
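Results reflect a 48-hour exposure of cells in 96-well plates to compound at five concentrations. Here, GI50 denotes the concentration required for 50% inhibition of growth. TGI denotes the concentration required for complete inhibition of growth.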

Experiments:
Test in all cases: inhibition of tumour cell growth, NCI panel, 48 h
[1] = tested on: OVCAR-3 ovarian
[2] = tested on: OVCAR-8 ovarian
[3] = tested on: LOX IMVI melanoma
[4] = tested on: SNB-75 CNS
[5] = tested on: SR leukemia
[6] = tested on: SF-268 CNS
[7] = tested on: PC-3 prostate
[8] = tested on: CAKI-1 renal
[9] = tested on: NCI-H522 lung
[10] = tested on: T-47D breast
[11] = tested on: MOLT-4 leukemia
[12] = tested on: OVCAR-5 ovarian
[13] = tested on: HCT-116 colon
[14] = tested on: SN12C renal
[15] = tested on: MDA-MB-231 breast
[16] = tested on: CCRF-CEM leukemia
[17] = tested on: COLO 205 colon
[18] = tested on: OVCAR-4 ovarian
[19] = tested on: K-562 leukemia
[20] = tested on: ACHN renal
[21] = tested on: EKVX NSCLC
[22] = tested on: SF-295 CNS
[23] = tested on: U251 CNS
[24] = tested on: KM12 colon
[25] = tested on: HCC-2998 colon
[26] = tested on: MDA-MB-435
[27] = tested on: HT29 colon
[28] = tested on: NCI/ADR-RES ovarian
[29] = tested on: 786-0 renal
[30] = tested on: NCI-H23 lung
[31] = tested on: RPMI-8226 leukemia
[32] = tested on: RXF 393 renal
[33] = tested on: BT-549 breast
[34] = tested on: M14 melanoma
[35] = tested on: TK-10 renal
[36] = tested on: SNB-19 CNS
[37] = tested on: MCF7 breast
[38] = tested on: A498 renal
[39] = tested on: IGROV1 ovarian
[40] = tested on: SK-MEL-5 melanoma
[41] = tested on: HL-60(TB) leukemia
[42] = tested on: SK-MEL-28 melanoma
[43] = tested on: HS 578T breast
[44] = tested on: NCI-H226 lung
[45] = tested on: SK-OV-3 ovarian
[46] = tested on: UO-31 renal
[47] = tested on: MALME-3M melanoma
[48] = tested on: UACC-62 melanoma
[49] = tested on: HCT-15 colon
[50] = tested on: HOP-92 NSCLC
[51] = tested on: HOP-62 NSCLC
[52] = tested on: SK-MEL-2 melanoma
[53] = tested on: UACC-257 melanoma
[54] = tested on: A549 NSCLC
[55] = tested on: DU-145 prostate
[56] = tested on: SF-539 CNS
[57] = tested on: SW-620 colon
[58] = tested on: NCI-H460 lung

COc1ccc(OC)c(Nc2nc3ccccc3c3c2-c2ccc(OC)cc2C3=O)c1
GI50 [1]: > 100 µM
TGI [1]: > 100 µM
GI50 [2]: > 100 µM
TGI [2]: > 100 µM
GI50 [3]: > 100 µM
TGI [3]: > 100 µM
GI50 [4]: > 100 µM
TGI [4]: > 100 µM
GI50 [5]: 40.7 µM
TGI [5]: > 100 µM
GI50 [6]: > 100 µM
TGI [6]: > 100 µM
GI50 [7]: > 100 µM
TGI [7]: > 100 µM
GI50 [8]: > 100 µM
TGI [8]: > 100 µM
GI50 [9]: > 100 µM
TGI [9]: > 100 µM
GI50 [10]: > 100 µM
TGI [10]: > 100 µM
GI50 [11]: > 100 µM
TGI [11]: > 100 µM
GI50 [12]: > 100 µM
TGI [12]: > 100 µM
GI50 [13]: > 100 µM
TGI [13]: > 100 µM
GI50 [14]: > 100 µM
TGI [14]: > 100 µM
GI50 [15]: > 100 µM
TGI [15]: > 100 µM
GI50 [16]: > 100 µM
TGI [16]: > 100 µM
GI50 [17]: > 100 µM
TGI [17]: > 100 µM
GI50 [18]: > 100 µM
TGI [18]: > 100 µM
GI50 [19]: > 100 µM
TGI [19]: > 100 µM
GI50 [20]: > 100 µM
TGI [20]: > 100 µM
GI50 [21]: > 100 µM
TGI [21]: > 100 µM
GI50 [22]: > 100 µM
TGI [22]: > 100 µM
GI50 [23]: > 100 µM
TGI [23]: > 100 µM
GI50 [24]: > 100 µM
TGI [24]: > 100 µM
GI50 [25]: > 100 µM
TGI [25]: > 100 µM
GI50 [26]: > 100 µM
TGI [26]: > 100 µM
GI50 [27]: > 100 µM
TGI [27]: > 100 µM
GI50 [28]: > 100 µM
TGI [28]: > 100 µM
GI50 [29]: > 100 µM
TGI [29]: > 100 µM
GI50 [30]: > 100 µM
TGI [30]: > 100 µM
GI50 [31]: > 100 µM
TGI [31]: > 100 µM
GI50 [32]: > 100 µM
TGI [32]: > 100 µM
GI50 [33]: > 100 µM
TGI [33]: > 100 µM
GI50 [34]: > 100 µM
TGI [34]: > 100 µM
GI50 [35]: > 100 µM
TGI [35]: > 100 µM
GI50 [36]: > 100 µM
TGI [36]: > 100 µM
GI50 [37]: > 100 µM
TGI [37]: > 100 µM
GI50 [38]: > 100 µM
TGI [38]: > 100 µM
GI50 [39]: > 100 µM
TGI [39]: > 100 µM
GI50 [40]: > 100 µM
TGI [40]: > 100 µM
GI50 [41]: > 100 µM
TGI [41]: > 100 µM
GI50 [42]: > 100 µM
TGI [42]: > 100 µM
GI50 [43]: > 100 µM
TGI [43]: > 100 µM
GI50 [44]: > 100 µM
TGI [44]: > 100 µM
GI50 [45]: > 100 µM
TGI [45]: > 100 µM
GI50 [46]: > 100 µM
TGI [46]: > 100 µM
GI50 [47]: > 100 µM
TGI [47]: > 100 µM
GI50 [48]: > 100 µM
TGI [48]: > 100 µM
GI50 [49]: > 100 µM
TGI [49]: > 100 µM
GI50 [50]: > 100 µM
TGI [50]: > 100 µM
GI50 [51]: > 100 µM
TGI [51]: > 100 µM
GI50 [52]: > 100 µM
TGI [52]: > 100 µM
GI50 [53]: > 100 µM
TGI [53]: > 100 µM
GI50 [54]: > 100 µM
TGI [54]: > 100 µM
GI50 [55]: > 100 µM
TGI [55]: > 100 µM
GI50 [56]: > 100 µM
TGI [56]: > 100 µM
GI50 [57]: > 100 µM
TGI [57]: > 100 µM
GI50 [58]: > 100 µM
TGI [58]: > 100 µM
